# How the values were obtained:
# EGFR = EGFR (Homo sapiens, UniProt P00533); assay: Kinase assay, EGFR (33P-ATP incorporation or luciferase-coupled ATP consumption); assay type: biochemical
# Description: (§1) Kinase assays were performed by measurement of incorporation of γ-^33P ATP into immobilized myelin basic protein (MBP). […] Plates were washed 3× with 100 μl TBS. […] Compound dilutions were performed in DMSO and added to assay wells to a final DMSO concentration of 1%. Each data point was measured in duplicate, and at least two duplicate assays were performed for each individual compound determination. Enzyme was added to final concentrations of 10 nM or 20 nM, for example. A mixture of unlabeled ATP and γ-^33P ATP was added to start the reaction (2×10^6 cpm of γ-^33P ATP per well (3000 Ci/mmole) and either 10 μM or 30 μM unlabeled ATP, typically. The reactions were carried out for 1 hour at room temperature with shaking. Plates were washed 7× with TBS, followed by the addition of 50 μl/well scintillation fluid (Wallac). Plates were read using a Wallac Trilux counter. This is only one format of such assays, various other formats are possible, as known to one of ordinary skill in the art.
# (§2) Tyrosine kinase activity is determined by 1) measurement of kinase-dependent ATP consumption by in the presence of a generic substrate such as, polyglutamic acid, tyrosine, 4:1 (pEY), by luciferase/luciferin-mediated chemiluminescence or; 2) incorporation of radioactive phosphate derived from ^33P-ATP into a generic substrate which has been adsorbed onto the well surface of polystyrene microtiter plates. Phosphorylated substrate products are quantified by scintillation spectrometry.
# (§3) Kinase activity and compound inhibition are investigated using one or more assay formats. The ATP concentrations for each assay are selected to be close to the Michaelis-Menten constant (KM) for each individual kinase. Dose-response experiments are performed at 10 different inhibitor concentrations in a 384-well plate format. […] Exemplary kinase assays are described below. KDR Assay
# [1] = biological target: T1, KDR (baculovirus expressed human KDR kinase domain D807-V1356) (Homo sapiens, UniProt P35968); assay: biochemical
# T1 construct: human KDR kinase domain D807-V1356; host or cells: baculovirus expression system
# T1 sequence (P35968 807-1356): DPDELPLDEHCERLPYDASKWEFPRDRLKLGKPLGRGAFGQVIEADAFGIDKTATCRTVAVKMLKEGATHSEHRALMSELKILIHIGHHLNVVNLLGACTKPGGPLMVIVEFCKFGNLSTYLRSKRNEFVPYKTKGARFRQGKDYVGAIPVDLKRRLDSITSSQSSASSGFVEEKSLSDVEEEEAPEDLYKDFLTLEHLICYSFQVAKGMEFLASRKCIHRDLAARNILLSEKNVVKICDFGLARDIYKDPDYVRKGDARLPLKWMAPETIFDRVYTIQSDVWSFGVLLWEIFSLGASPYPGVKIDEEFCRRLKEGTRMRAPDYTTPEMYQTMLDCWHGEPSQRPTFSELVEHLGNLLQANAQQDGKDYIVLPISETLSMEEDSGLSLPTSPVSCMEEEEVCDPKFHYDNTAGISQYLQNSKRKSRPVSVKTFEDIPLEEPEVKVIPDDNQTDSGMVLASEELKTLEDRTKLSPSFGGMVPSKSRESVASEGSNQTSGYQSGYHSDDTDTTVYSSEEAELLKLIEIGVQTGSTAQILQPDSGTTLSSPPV
# Description: as §3
# KDR biochemical activity was assessed using a Luciferase-Coupled Chemiluminescent Kinase assay (LCCA) format. Kinase activity was measured as the percent ATP remaining following the kinase reaction. Remaining ATP was detected by luciferase-luciferin-coupled chemiluminescence. […] The mixture is incubated at ambient temperature for 4 hours after which 20 uL luciferase-luciferin mix is added and the chemiluminescent signal read using a Wallac Victor^2 reader.
# IRK = IRK (Homo sapiens, UniProt P06213); assay: Kinase assay, IRK; assay type: biochemical
# Description: as §3
# EphA2 = EphA2 (Homo sapiens, UniProt P29317); assay: Kinase assay, EphA2 (33P-ATP incorporation or luciferase-coupled ATP consumption); assay type: biochemical
# EphA2, sequence (P29317 24-976, species assumed): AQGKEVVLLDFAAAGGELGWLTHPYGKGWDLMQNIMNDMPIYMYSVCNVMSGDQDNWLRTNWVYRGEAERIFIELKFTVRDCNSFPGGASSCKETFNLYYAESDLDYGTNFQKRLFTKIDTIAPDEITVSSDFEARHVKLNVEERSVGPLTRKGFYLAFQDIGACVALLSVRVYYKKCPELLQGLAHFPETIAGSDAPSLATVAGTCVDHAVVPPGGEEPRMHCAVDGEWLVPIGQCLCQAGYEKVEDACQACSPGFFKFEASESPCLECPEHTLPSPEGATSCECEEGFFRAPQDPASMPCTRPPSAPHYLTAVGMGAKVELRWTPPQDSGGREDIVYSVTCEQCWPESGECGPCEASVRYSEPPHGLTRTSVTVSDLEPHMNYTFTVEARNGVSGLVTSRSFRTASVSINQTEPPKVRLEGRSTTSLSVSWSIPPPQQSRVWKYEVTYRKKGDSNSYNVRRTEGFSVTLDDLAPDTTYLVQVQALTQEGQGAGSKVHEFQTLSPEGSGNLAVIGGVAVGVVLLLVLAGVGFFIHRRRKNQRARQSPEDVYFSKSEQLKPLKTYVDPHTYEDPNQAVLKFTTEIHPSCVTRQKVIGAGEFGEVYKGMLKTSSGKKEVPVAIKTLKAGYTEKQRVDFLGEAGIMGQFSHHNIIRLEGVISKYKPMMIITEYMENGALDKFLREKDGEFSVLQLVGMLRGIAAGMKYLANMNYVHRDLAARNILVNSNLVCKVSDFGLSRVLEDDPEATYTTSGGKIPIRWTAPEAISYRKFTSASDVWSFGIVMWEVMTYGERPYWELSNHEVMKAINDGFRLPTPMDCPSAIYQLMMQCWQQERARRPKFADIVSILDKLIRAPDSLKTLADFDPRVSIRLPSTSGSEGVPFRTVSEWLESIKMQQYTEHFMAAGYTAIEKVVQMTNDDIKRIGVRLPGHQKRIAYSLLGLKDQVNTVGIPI
# Description: as §1, §2, §3
# Flt-1 = Flt-1 (Homo sapiens, UniProt P17948); assay: Kinase assay, Flt-1 (33P-ATP incorporation or luciferase-coupled ATP consumption); assay type: biochemical; conditions: read-out: Flt1 IC50
# Description: as §1, §2, §3
# Fyn = Fyn (Homo sapiens, UniProt P06241); assay: Kinase assay, Fyn; assay type: biochemical
# Fyn, sequence (P06241 whole entry, species assumed): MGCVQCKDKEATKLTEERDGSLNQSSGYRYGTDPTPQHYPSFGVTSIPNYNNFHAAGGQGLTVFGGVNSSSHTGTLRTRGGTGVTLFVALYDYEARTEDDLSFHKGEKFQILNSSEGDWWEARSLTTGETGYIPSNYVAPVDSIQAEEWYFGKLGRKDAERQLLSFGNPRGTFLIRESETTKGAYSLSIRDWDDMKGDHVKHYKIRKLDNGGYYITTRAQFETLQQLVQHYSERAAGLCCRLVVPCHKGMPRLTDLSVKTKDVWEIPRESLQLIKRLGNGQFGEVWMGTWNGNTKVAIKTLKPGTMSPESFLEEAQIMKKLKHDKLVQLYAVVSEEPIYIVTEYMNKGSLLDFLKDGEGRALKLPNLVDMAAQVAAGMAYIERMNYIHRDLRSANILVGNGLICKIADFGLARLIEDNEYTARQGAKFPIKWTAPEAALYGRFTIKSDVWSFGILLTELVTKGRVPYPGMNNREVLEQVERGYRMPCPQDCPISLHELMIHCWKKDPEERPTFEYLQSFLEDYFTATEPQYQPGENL
# Description: as §3
# PDGFR alpha = PDGFR alpha (Homo sapiens, UniProt P16234); assay: Kinase assay, PDGFR alpha (33P-ATP incorporation or luciferase-coupled ATP consumption); assay type: biochemical; conditions: read-out: PDGF-R-A IC50
# PDGFR alpha, sequence (P16234 24-1089): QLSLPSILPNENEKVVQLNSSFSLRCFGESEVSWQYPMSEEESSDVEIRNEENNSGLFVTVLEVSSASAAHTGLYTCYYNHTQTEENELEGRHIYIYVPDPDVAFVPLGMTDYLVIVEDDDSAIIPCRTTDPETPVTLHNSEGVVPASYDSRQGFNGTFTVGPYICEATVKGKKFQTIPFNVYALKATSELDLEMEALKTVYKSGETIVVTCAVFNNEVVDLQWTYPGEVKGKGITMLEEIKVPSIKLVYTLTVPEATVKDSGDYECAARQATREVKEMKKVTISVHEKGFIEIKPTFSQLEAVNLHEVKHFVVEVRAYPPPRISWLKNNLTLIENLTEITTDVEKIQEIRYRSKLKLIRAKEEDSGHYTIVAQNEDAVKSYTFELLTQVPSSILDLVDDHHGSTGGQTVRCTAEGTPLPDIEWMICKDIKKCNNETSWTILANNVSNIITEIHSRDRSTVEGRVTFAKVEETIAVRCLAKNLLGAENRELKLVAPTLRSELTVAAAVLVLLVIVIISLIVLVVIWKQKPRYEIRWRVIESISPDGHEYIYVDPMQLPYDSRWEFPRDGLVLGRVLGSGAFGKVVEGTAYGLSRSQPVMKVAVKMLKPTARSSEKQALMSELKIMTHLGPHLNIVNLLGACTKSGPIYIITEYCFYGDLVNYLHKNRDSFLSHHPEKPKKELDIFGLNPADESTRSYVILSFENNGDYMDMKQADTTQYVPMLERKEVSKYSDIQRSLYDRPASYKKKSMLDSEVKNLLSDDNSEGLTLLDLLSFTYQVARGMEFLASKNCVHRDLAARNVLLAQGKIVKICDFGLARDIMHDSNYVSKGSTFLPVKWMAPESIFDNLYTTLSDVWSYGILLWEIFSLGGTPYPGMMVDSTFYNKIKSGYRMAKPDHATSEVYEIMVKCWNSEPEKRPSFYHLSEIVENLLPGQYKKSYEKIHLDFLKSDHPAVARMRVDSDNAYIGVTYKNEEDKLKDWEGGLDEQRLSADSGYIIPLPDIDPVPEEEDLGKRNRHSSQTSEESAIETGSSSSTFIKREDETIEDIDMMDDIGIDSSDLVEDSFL
# Description: as §1, §2, §3
# FGFR1 = FGFR1 (Homo sapiens, UniProt P11362); assay: Kinase assay, FGFR1 (33P-ATP incorporation or luciferase-coupled ATP consumption); assay type: biochemical
# FGFR1, sequence (P11362 22-822, species assumed): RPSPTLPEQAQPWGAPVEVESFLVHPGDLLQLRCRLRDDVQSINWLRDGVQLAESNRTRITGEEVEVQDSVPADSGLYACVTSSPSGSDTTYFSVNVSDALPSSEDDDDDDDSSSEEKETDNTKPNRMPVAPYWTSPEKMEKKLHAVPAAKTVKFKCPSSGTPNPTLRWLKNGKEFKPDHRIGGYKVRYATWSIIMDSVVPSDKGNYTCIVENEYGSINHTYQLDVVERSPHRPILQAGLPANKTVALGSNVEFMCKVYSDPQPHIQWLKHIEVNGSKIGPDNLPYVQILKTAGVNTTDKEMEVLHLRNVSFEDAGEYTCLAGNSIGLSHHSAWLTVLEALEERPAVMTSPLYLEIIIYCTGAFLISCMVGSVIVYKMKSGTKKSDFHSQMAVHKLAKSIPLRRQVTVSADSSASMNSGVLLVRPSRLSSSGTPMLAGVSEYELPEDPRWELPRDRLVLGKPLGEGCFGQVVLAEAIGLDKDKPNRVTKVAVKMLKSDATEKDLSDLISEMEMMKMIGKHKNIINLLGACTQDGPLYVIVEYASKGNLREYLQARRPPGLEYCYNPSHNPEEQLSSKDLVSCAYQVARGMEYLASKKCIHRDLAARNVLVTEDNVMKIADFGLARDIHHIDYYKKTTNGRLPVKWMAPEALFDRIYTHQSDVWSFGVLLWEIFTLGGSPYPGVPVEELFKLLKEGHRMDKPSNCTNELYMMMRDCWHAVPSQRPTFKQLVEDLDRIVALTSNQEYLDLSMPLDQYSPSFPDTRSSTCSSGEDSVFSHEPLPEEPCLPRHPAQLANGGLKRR
# Description: as §1, §2, §3
# EGFR, sequence (P00533 25-1210, species assumed): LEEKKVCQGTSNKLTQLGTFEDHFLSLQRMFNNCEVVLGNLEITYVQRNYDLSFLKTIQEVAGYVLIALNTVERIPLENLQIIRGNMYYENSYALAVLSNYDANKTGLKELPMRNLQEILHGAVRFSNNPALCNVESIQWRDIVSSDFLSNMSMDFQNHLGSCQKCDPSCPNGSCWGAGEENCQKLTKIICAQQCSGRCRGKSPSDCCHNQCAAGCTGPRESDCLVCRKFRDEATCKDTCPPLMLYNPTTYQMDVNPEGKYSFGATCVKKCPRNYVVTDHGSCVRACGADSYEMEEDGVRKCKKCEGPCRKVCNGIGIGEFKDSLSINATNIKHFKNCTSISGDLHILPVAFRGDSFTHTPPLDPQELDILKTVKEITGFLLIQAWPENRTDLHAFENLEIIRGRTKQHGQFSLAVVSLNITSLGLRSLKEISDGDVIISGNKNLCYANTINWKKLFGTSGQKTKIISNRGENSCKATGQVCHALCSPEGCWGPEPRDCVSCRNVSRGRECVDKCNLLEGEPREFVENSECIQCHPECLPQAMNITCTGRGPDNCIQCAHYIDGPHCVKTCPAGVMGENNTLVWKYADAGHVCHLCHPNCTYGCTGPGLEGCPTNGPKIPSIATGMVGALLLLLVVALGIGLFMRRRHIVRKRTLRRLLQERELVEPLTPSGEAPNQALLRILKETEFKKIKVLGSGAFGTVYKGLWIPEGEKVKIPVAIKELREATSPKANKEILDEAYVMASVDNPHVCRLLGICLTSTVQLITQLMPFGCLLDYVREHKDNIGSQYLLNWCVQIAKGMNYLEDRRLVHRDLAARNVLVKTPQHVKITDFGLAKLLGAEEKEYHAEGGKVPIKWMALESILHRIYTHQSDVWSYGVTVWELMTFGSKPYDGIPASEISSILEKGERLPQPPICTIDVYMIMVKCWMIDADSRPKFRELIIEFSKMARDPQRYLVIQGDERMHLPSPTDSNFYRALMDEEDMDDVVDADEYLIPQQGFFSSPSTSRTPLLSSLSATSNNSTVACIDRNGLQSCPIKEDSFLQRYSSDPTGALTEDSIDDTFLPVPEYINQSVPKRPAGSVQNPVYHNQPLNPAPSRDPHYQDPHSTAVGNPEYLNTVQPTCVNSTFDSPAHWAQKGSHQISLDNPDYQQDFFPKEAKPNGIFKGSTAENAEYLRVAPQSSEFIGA
SMILES,IC50 (EGFR),IC50 [1],IC50 (IRK),IC50 (EphA2),IC50 (Flt-1),IC50 (Fyn),IC50 (PDGFR alpha),IC50 (FGFR1)
"O=C1Nc2ccc(OC3CCN(Cc4ccccc4)CC3)cc2/C1=C(\c1ccccc1)c1nc2ccccc2[nH]1 [Entry 34, (3Z)-3-[1H-benzimidazol-2-yl(phenyl)methylidene]-5-{(1-(phenylmethyl)piperidin-4-yl]oxy}-1,3-dihydro-2H-indol-2-one]",500 to 5000 nM,< 50 nM,500 to 5000 nM,500 to 5000 nM,500 to 5000 nM,< 50 nM,< 50 nM,
"CCN1CCC(Nc2ccc3c(c2)/C(=C(\c2ccccc2)c2nc(CCN4C(=O)c5ccccc5C4=O)c[nH]2)C(=O)N3)CC1 [Entry 28, 2-(2-{2-[(Z)-{5-[(1-ethylpiperidin-4-yl)amino]-2-oxo-1,2-dihydro-3H-indol-3-ylidene}(phenyl)methyl]-1H-imidazol-4-yl}ethyl)-1H-isoindole-1,3(2H)-dione]",500 to 5000 nM,< 50 nM,500 to 5000 nM,500 to 5000 nM,50 to 500 nM,50 to 500 nM,< 50 nM,
Cc1ccc(/C(=C2/C(=O)Nc3ccc(NC4CCN(C)CC4)cc32)c2ncc[nH]2)cc1 [Entry 86],50 to 500 nM,< 50 nM,500 to 5000 nM,50 to 500 nM,,< 50 nM,< 50 nM,< 50 nM
COCCN1CCC(Nc2ccc3c(c2)/C(=C(\c2ccc(C(F)(F)F)c(F)c2)c2ncc[nH]2)C(=O)N3)CC1 [Entry 92],> 5000 nM,< 50 nM,> 5000 nM,500 to 5000 nM,,50 to 500 nM,< 50 nM,50 to 500 nM
COCCN1CCC(Nc2ccc3c(c2)/C(=C(\c2ccccc2)c2nc4cc(Cl)ccc4[nH]2)C(=O)N3)CC1 [Entry 72],> 5000 nM,< 50 nM,> 5000 nM,500 to 5000 nM,,50 to 500 nM,< 50 nM,< 50 nM
COCCN1CCC(Nc2ccc3c(c2)/C(=C(\c2ccc(C)cc2)c2ncc[nH]2)C(=O)N3)CC1 [Entry 69],50 to 500 nM,< 50 nM,500 to 5000 nM,50 to 500 nM,,< 50 nM,< 50 nM,< 50 nM
COCCN1CCC(Nc2ccc3c(c2)/C(=C(\c2cccc(F)c2)c2ncn[nH]2)C(=O)N3)CC1 [Entry 87],> 5000 nM,50 to 500 nM,> 5000 nM,> 5000 nM,,> 5000 nM,50 to 500 nM,50 to 500 nM
"CCN1CCC(Nc2ccc3c(c2)/C(=C(\c2cc(F)cc(F)c2)c2nc4cc(F)ccc4[nH]2)C(=O)N3)CC1 [Entry 62, (3Z)-3-[(3,5-difluorophenyl)(5-fluoro-1H-benzimidazol-2-yl)methylidene]-5-[(1-ethylpiperidin-4-yl)amino]-1,3-dihydro-2H-indol-2-one]",50 to 500 nM,< 50 nM,> 5000 nM,500 to 5000 nM,,< 50 nM,< 50 nM,< 50 nM
COCCN1CCC(Nc2ccc3c(c2)/C(=C(\c2cc(F)cc(F)c2)c2nc(C)c[nH]2)C(=O)N3)CC1 [Entry 76],50 to 500 nM,< 50 nM,500 to 5000 nM,500 to 5000 nM,,< 50 nM,< 50 nM,< 50 nM
COCCN1CCC(Nc2ccc3c(c2)/C(=C(\c2ccccc2)c2ncc[nH]2)C(=O)N3)CC1 [Entry 89],> 5000 nM,< 50 nM,500 to 5000 nM,500 to 5000 nM,,< 50 nM,< 50 nM,< 50 nM
CCN1CCC(Nc2ccc3c(c2)/C(=C(\c2ccc(C(F)(F)F)nc2)c2ncc[nH]2)C(=O)N3)CC1 [Entry 68],> 5000 nM,50 to 500 nM,> 5000 nM,500 to 5000 nM,,50 to 500 nM,< 50 nM,50 to 500 nM
"CCN1CCC(Nc2ccc3c(c2)/C(=C(/c2cc(F)cc(F)c2)c2nc4cc(F)ccc4[nH]2)C(=O)N3)CC1 [Entry 61, (3E)-3-[(3,5-difluorophenyl)(5-fluoro-1H-benzimidazol-2-yl)methylidene]-5-[(1-ethylpiperidin-4-yl)amino]-1,3-dihydro-2H-indol-2-one]",> 5000 nM,< 50 nM,> 5000 nM,> 5000 nM,,< 50 nM,< 50 nM,50 to 500 nM
"CCCc1ccc(/C(=C2/C(=O)Nc3ccc(NC4CCN(CC)CC4)cc32)c2ncc[nH]2)cc1 [Entry 59, (3Z)-5-[(1-ethylpiperidin-4-yl)amino]-3-[1H-imidazol-2-yl(4-propylphenyl)methylidene]-1,3-dihydro-2H-indol-2-one]",50 to 500 nM,< 50 nM,500 to 5000 nM,500 to 5000 nM,,< 50 nM,< 50 nM,< 50 nM
"CCOC(=O)c1[nH]c(/C(=C2\C(=O)Nc3ccc(NC4CCN(CCOC)CC4)cc32)c2cccc(F)c2)nc1C [Entry 88, ethyl 2-{(Z)-(3-fluorophenyl)[5-({1-[2-(methyloxy)ethyl]piperidin-4-yl}amino)-2-oxo-1,2-dihydro-3H-indol-3-ylidene]methyl}-4-methyl-1H-imidazole-5-carboxylate]",> 5000 nM,50 to 500 nM,> 5000 nM,> 5000 nM,,50 to 500 nM,< 50 nM,50 to 500 nM

# Results, then the molecule that gave them:
IC50 (EGFR),IC50 [1],IC50 (IRK),IC50 (EphA2),IC50 (Flt-1),IC50 (Fyn),IC50 (PDGFR alpha),IC50 (FGFR1),SMILES
> 5000 nM,50 to 500 nM,> 5000 nM,500 to 5000 nM,,50 to 500 nM,50 to 500 nM,50 to 500 nM,"CCN(CC)CCN1CCC(Nc2ccc3c(c2)/C(=C(\c2cccc(F)c2)c2ncc[nH]2)C(=O)N3)CC1 [Entry 84, (3Z)-5-({1-[2-(diethylamino)ethyl]piperidin-4-yl}amino)-3-[(3-fluorophenyl)(1H-imidazol-2-yl)methylidene]-1,3-dihydro-2H-indol-2-one]"
> 5000 nM,< 50 nM,> 5000 nM,500 to 5000 nM,,50 to 500 nM,< 50 nM,50 to 500 nM,COCCN1CCC(Nc2ccc3c(c2)/C(=C(\c2ccc(F)cc2)c2ncc[nH]2)C(=O)N3)CC1 [Entry 78]
> 5000 nM,< 50 nM,> 5000 nM,500 to 5000 nM,,50 to 500 nM,< 50 nM,50 to 500 nM,"O=C1Nc2ccc(NC3CCN(CCN4CCCC4)CC3)cc2/C1=C(\c1cccc(F)c1)c1ncc[nH]1 [Entry 85, (3Z)-3-[(3-fluorophenyl)(1H-imidazol-2-yl)methylidene]-5-{[1-(2-pyrrolidin-1-ylethyl)piperidin-4-yl]amino}-1,3-dihydro-2H-indol-2-one]"
> 5000 nM,< 50 nM,> 5000 nM,500 to 5000 nM,,50 to 500 nM,< 50 nM,< 50 nM,O=C1Nc2ccc(NC3CCN(CCN4CCOCC4)CC3)cc2/C1=C(\c1cccc(F)c1)c1ncc[nH]1 [Entry 83]
50 to 500 nM,< 50 nM,> 5000 nM,500 to 5000 nM,,< 50 nM,< 50 nM,< 50 nM,"COCCN1CCC(Nc2ccc3c(c2)/C(=C(\c2cc(F)cc(F)c2)c2ncc[nH]2)C(=O)N3)CC1 [Entry 75, (3Z)-3-[(3,5-difluorophenyl)(1H-imidazol-2-yl)methylidene]-5-({1-[2-(methyloxy)ethyl]piperidin-4-yl}amino)-1,3-dihydro-2H-indol-2-one]"
> 5000 nM,50 to 500 nM,> 5000 nM,500 to 5000 nM,,50 to 500 nM,50 to 500 nM,50 to 500 nM,O=C1Nc2ccc(NC3CCN(CCN4CCCCC4)CC3)cc2/C1=C(\c1cccc(F)c1)c1ncc[nH]1 [Entry 82]
> 5000 nM,< 50 nM,> 5000 nM,500 to 5000 nM,,50 to 500 nM,50 to 500 nM,50 to 500 nM,COCCN1CCC(Nc2ccc3c(c2)/C(=C(\c2ccc(F)c(Cl)c2)c2ncc[nH]2)C(=O)N3)CC1 [Entry 80]
